In patent US12077503B2, “Substituted cyclic amides and their use as herbicides” (FMC CORPORATION, priority 2015, dated 2024):

Key:
Assay type in all cases: in vivo
Kochia (Kochia scoparia) [1] = experiment: Test A preemergence; conditions: Bassia scoparia, pre-emergence, 240 h, 0 to 100 scale where 0 is no effect and 100 is complete control, read-out: Kochia plant response rating
In short: (§1)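 Treatment is preemergence as a directed soil spray after planting, or postemergence at the one- to two-leaf stage, with test chemical in a non-phytotoxic solvent mixture plus surfactant. Plants stay in the greenhouse about 10 d before visual injury scoring on a 0 to 100 scale versus untreated controls.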

[2] = system: pigweed (Amaranthus retroflexus); experiment: Test A preemergence; conditions: Amaranthus retroflexus, pre-emergence, 240 h, 0 to 100 scale where 0 is no effect and 100 is complete control, read-out: Pigweed plant response rating
[3] = system: ragweed (common ragweed, Ambrosia elatior); experiment: Test A preemergence; conditions: Ambrosia artemisiifolia, pre-emergence, 240 h, 0 to 100 scale where 0 is no effect and 100 is complete control, read-out: Ragweed plant response rating
In short: as §1

[4] = system: barnyardgrass (Echinochloa crus-galli); experiment: Test A preemergence; conditions: Echinochloa crus-galli, pre-emergence, 240 h, 0 to 100 scale where 0 is no effect and 100 is complete control, read-out: Barnyardgrass plant response rating
In short: as §1

[5] = system: giant foxtail (Setaria faberii); experiment: Test A preemergence; conditions: Setaria faberi, pre-emergence, 240 h, 0 to 100 scale where 0 is no effect and 100 is complete control, read-out: Foxtail, Giant plant response rating
In short: as §1

[6] = system: ryegrass, Italian (Italian ryegrass, Lolium multiflorum); experiment: Test A preemergence; conditions: Lolium multiflorum, pre-emergence, 240 h, 0 to 100 scale where 0 is no effect and 100 is complete control, read-out: Ryegrass, Italian plant response rating
In short: as §1

rice (Oryra sativa) = experiment: Test B flooded paddy test; conditions: Oryza sativa, 250 g ai/ha, Flood; 0 to 100 scale where 0 is no effect and 100 is complete control; read-out: Rice plant response rating
In short: (§2)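 Rating scale 0–100 (visual, vs untreated controls) after a 13–15 d greenhouse period; application to the flood layer, 3 cm above soil and maintained; plants at 2-leaf stage when treated.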

[7] = system: barnyardgrass (Echinochloa crus-galli); experiment: Test B flooded paddy test; conditions: Echinochloa crus-galli, 250 g ai/ha, Flood; 0 to 100 scale where 0 is no effect and 100 is complete control; read-out: Barnyardgrass plant response rating
In short: as §2

[8] = system: sedge, umbrella (small-flower umbrella sedge, Cyperus difformis); experiment: Test B flooded paddy test; conditions: Cyperus difformis, 250 g ai/ha, Flood; 0 to 100 scale where 0 is no effect and 100 is complete control; read-out: Sedge, Umbrella plant response rating
In short: as §2

[9] = system: ducksalad (Heteranthera limosa); experiment: Test B flooded paddy test; conditions: Heteranthera limosa, 250 g ai/ha, Flood; 0 to 100 scale where 0 is no effect and 100 is complete control; read-out: Ducksalad plant response rating
In short: as §2

Kochia (Kochia scoparia) [10] = experiment: Test A postemergence; conditions: Bassia scoparia, post-emergence, 240 h, Postemergence, read-out: Kochia plant response rating (0 to 100 scale)
In short: as §1

[11] = system: pigweed (Amaranthus retroflexus); experiment: Test A postemergence; conditions: Amaranthus retroflexus, post-emergence, 240 h, Postemergence, read-out: Pigweed plant response rating (0 to 100 scale)
In short: as §1

[12] = system: ragweed (common ragweed, Ambrosia elatior); experiment: Test A postemergence; conditions: Ambrosia artemisiifolia, post-emergence, 240 h, Postemergence, read-out: Ragweed plant response rating (0 to 100 scale)
In short: as §1

[13] = system: barnyardgrass (Echinochloa crus-galli); experiment: Test A postemergence; conditions: Echinochloa crus-galli, post-emergence, 240 h, Postemergence
In short: as §1

[14] = system: Galium (catchweed bedstraw, Galium aparine); experiment: Test A postemergence; conditions: Galium, post-emergence, 240 h, Postemergence, read-out: Galium plant response rating (0 to 100 scale)
In short: as §1

[15] = system: giant foxtail (Setaria faberii); experiment: Test A postemergence; conditions: Setaria faberi, post-emergence, 240 h, Postemergence, read-out: Foxtail, Giant plant response rating (0 to 100 scale)
In short: as §1

corn (Zea mays) = experiment: Test A postemergence; conditions: Zea mays, post-emergence, 240 h, Postemergence, read-out: Corn plant response rating (0 to 100 scale)
In short: as §1

[16] = system: wheat (Triticum aestivum); experiment: Test A postemergence; conditions: Triticum aestivum, post-emergence, 240 h, Postemergence, read-out: Wheat plant response rating (0 to 100 scale)
In short: as §1

[17] = system: ryegrass, Italian (Italian ryegrass, Lolium multiflorum); experiment: Test A postemergence; conditions: Lolium multiflorum, post-emergence, 240 h, Postemergence, read-out: Ryegrass, Italian plant response rating (0 to 100 scale)
In short: as §1

[18] = system: blackgrass (Alopecurus myosuroides); experiment: Test A postemergence; conditions: Alopecurus myosuroides, post-emergence, 240 h, Postemergence, read-out: Blackgrass plant response rating (0 to 100 scale)
In short: as §1

[19] = 125 g ai/ha, preemergence, visual injury rating, approximately 10 d
[20] = 125 g ai/ha, visual rating about 10 d after treatment
[21] = 31 g ai/ha, 0 is no effect, 100 is complete control

Structure (SMILES): O=C(Nc1cccc(F)c1F)[C@H]1C(=O)N(CC(F)F)C[C@@H]1c1cccc(C(F)(F)F)c1 [Compound 1296]
- pest or weed control at 31 g/ha (Kochia (Kochia scoparia) [1]; 31 g ai/ha, Preemergence): 0%
- pest or weed control at 125 g/ha (Kochia (Kochia scoparia) [1]; [19]): 0%
- pest or weed control at 31 g/ha ([2]; 31 g ai/ha, Preemergence): 0%
- pest or weed control at 125 g/ha [2, 19]: 0%
- pest or weed control at 31 g/ha ([3]; 31 g ai/ha, Preemergence): 0%
- pest or weed control at 125 g/ha [3, 19]: 0%
- pest or weed control at 31 g/ha ([4]; 31 g ai/ha, Preemergence): 20%
- pest or weed control at 125 g/ha [4, 19]: 70%
- pest or weed control at 31 g/ha ([5]; 31 g ai/ha, Preemergence): 20%
- pest or weed control at 125 g/ha [5, 19]: 60%
- pest or weed control at 31 g/ha ([6]; 31 g ai/ha, Preemergence): 0%
- pest or weed control at 125 g/ha [6, 19]: 0%
- pest or weed control at 250 g/ha (rice (Oryra sativa)): 30%
- pest or weed control at 250 g/ha [7]: 15%
- pest or weed control at 250 g/ha [8]: 0%
- pest or weed control at 250 g/ha [9]: 0%
- pest or weed control at 125 g/ha (Kochia (Kochia scoparia) [10]; [20]): 0%
- pest or weed control at 31 g/ha (Kochia (Kochia scoparia) [10]; [21]): 0%
- pest or weed control at 125 g/ha [11, 20]: 0%
- pest or weed control at 31 g/ha [11, 21]: 0%
- pest or weed control at 125 g/ha [12, 20]: 0%
- pest or weed control at 31 g/ha [12, 21]: 0%
- pest or weed control at 125 g/ha ([13]; 125 g ai/ha, visual rating about 10 d after treatment, read-out: Barnyardgrass plant response rating (0 to 100 scale, 0 no effect, 100 complete control)): 30%
- pest or weed control at 31 g/ha ([13]; 31 g ai/ha, 0 is no effect, 100 is complete control, read-out: Barnyardgrass plant response rating (0 to 100 scale)): 0%
- pest or weed control at 125 g/ha [14, 20]: 0%
- pest or weed control at 31 g/ha [14, 21]: 0%
- pest or weed control at 125 g/ha [15, 20]: 30%
- pest or weed control at 31 g/ha [15, 21]: 0%
- plant injury at 125 g/ha (corn (Zea mays); [20]): 0%
- plant injury at 31 g/ha (corn (Zea mays); [21]): 0%
- plant injury at 125 g/ha [16, 20]: 0%
- plant injury at 31 g/ha [16, 21]: 0%
- pest or weed control at 125 g/ha [17, 20]: 0%
- pest or weed control at 31 g/ha [17, 21]: 0%
- pest or weed control at 125 g/ha [18, 20]: 0%
- pest or weed control at 31 g/ha [18, 21]: 0%
